Like-named read-outs stand apart in the source and are kept apart here.

Data on 12 compounds can be found in patent US8524917B2, “6-substituted indole-3-carboxylic acid amide compounds having sphingosine-1-phosphate (S1P) receptor antagonist biological activity” (Allergan, Inc., priority 2007, dated 2013).

The experiment has as its target human S1P3 receptor (Homo sapiens (Human), UniProt Q99500). The experiment is described as follows: Activation or block of activation of human S1P3 receptor, Ca+2 FLIPR assay. The class given is cell-based. The conditions noted are these: for IC50: read-out: S1P3 IC50. Here is the method: Compounds were assessed for their ability to activate or block activation of the human S1P3 receptor in T24 cells stably expressing the human S1P3 receptor. Ten thousand cells/well were plated into 384-well poly-D-lysine coated plates one day prior to use. The growth media for the S1P3 receptor expressing cell line was McCoy's 5A medium supplemented with 10% charcoal-treated fetal bovine serum (FBS), 1% antibiotic-antimycotic and 400 μg/ml geneticin. On the day of the experiment, the cells were washed twice with Hank's Balanced Salt Solution supplemented with 20 mM HEPES (HBSS/Hepes buffer). […] Extracellular dye was removed by washing the cell plates four times prior to placing the plates in the FLIPR (Fluorometric Imaging Plate Reader, Molecular Devices). Ligands were diluted in HBSS/Hepes buffer and prepared in 384-well microplates. The positive control, Sphingosine-1-Phosphate (S1P), was diluted in HBSS/Hepes buffer with 4 mg/ml fatty acid free bovine serum albumin. The FLIPR transferred 12.5 μl from the ligand microplate to the cell plate and took fluorescent measurements for 75 seconds, taking readings every second, and then for 2.5 minutes, taking readings every 10 seconds. […] IC50 values were determined through a […] analysis using the Levenburg Marquardt algorithm.

The mark [1] stands for this setting: T24 cells stably expressing the human S1P3 receptor, FLIPR Ca+2 response, 0.61 nM to 10,000 nM.
[2] abbreviates: T24 cells stably expressing the human S1P3 receptor, value in brackets.
Setting [3] is: T24 cells stably expressing the human S1P3 receptor, second concentration in the cell, read-out: S1P3 Kb.

Chain of human S1P3 receptor (Q99500 whole entry): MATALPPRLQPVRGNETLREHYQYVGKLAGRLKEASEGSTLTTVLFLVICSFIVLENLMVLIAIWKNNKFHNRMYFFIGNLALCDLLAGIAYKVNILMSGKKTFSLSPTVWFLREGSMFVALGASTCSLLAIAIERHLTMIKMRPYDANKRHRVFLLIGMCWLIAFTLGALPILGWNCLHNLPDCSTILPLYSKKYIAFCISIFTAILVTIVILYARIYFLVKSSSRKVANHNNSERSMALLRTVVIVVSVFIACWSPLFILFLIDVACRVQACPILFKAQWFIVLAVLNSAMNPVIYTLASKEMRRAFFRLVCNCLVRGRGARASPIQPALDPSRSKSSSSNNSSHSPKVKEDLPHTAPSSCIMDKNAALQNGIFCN

In the case of `CON=C(C)c1c(C(=O)NCc2ccc(F)c(F)c2)c2ccc(OC(C)C)cc2n1Cc1ccccn1` (stereo in doubt) [Compound 111, (E)-N-(3,4-Difluorobenzyl)-6-isopropoxy-2-(1-(methoxyimino)ethyl)-1-(pyridin-2-ylmethyl)-1H-indole-3-carboxamide], the “S1P3 (% inh)” value was 263 nM (100) % and the IC50 is 263 nM.

With `COc1ccc2c(C(=O)NCc3ccc(F)c(F)c3)c(C(C)C)n(Cc3ccccc3)c2c1` [Compound 7, 1-Benzyl-N-(3,4-difluorobenzyl)-2-isopropyl-6-methoxy-1H-indole-3-carboxamide], the IC50 under setting [1] turned out to be 560 nM. Moreover, the “S1P3 (% inh)” value under setting [2] turned out to be 98%.

As to `CC(C)c1c(C(=O)NCc2ccc(F)c(F)c2)c2ccc(O)cc2n1Cc1ccccc1` [Compound 8, 1-Benzyl-N-(3,4-difluorobenzyl)-6-hydroxy-2-isopropyl-1H-indole-3-carboxamide], the IC50 under setting [1] was found to be 3100 nM. Besides, the “S1P3 (% inh)” value under setting [2] is reported as 71%.

With `CCCOc1ccc2c(C(=O)NCc3ccc(F)c(F)c3)c(C(C)C)n(Cc3ccccc3)c2c1` [Compound 10, 1-Benzyl-N-(3,4-difluorobenzyl)-2-isopropyl-6-propoxy-1H-indole-3-carboxamide], under setting [3], the Kb is 2 nM.

Take `CC(C)Oc1ccc2c(C(=O)NCc3ccc(F)c(F)c3)c(C(C)C)n(Cc3ccccc3)c2c1` [Compound 11, 1-Benzyl-N-(3,4-difluorobenzyl)-6-isopropoxy-2-isopropyl-1H-indole-3-carboxamide]: the Kb under setting [3] amounted to 2 nM.

`CCCCOc1ccc2c(C(=O)NCc3ccc(F)c(F)c3)c(C(C)C)n(Cc3ccccc3)c2c1` [Compound 12, 1-Benzyl-6-butoxy-N-(3,4-difluorobenzyl)-2-isopropyl-1H-indole-3-carboxamide]: the IC50 under setting [1] stood at 3 nM. Moreover, the “S1P3 (% inh)” value under setting [2] turned out to be 100%.

As for `CC(C)COc1ccc2c(C(=O)NCc3ccc(F)c(F)c3)c(C(C)C)n(Cc3ccccc3)c2c1` [Compound 13, 1-Benzyl-N-(3,4-difluorobenzyl)-6-isobutoxy-2-isopropyl-1H-indole-3-carboxamide], the IC50 under setting [1] is 1.2 nM. The Kb under setting [3] is 1.6 nM. The “S1P3 (% inh)” value under setting [2] came to 100%.

With `CCCCCCOc1ccc2c(C(=O)NCc3ccc(F)c(F)c3)c(C(C)C)n(Cc3ccccc3)c2c1` [Compound 14, 1-Benzyl-N-(3,4-difluorobenzyl)-6-(hexoxy)-2-isopropyl-1H-indole-3-carboxamide], the “S1P3 (% inh)” value is listed as 3.1 μM (96) % and the IC50 stood at 3100 nM.

For the compound `CC(C)c1c(C(=O)NCc2ccc(F)c(F)c2)c2ccc(OCc3ccccc3)cc2n1Cc1ccccc1` [Compound 15, 1-Benzyl-6-(benzyloxy)-N-(3,4-difluorobenzyl)-2-isopropyl-1H-indole-3-carboxamide], the “S1P3 (% inh)” value is reported as 260 nM (100) % and the IC50 was determined as 260 nM.

For `CC(C)c1c(C(=O)NCc2ccc(F)c(F)c2)c2ccc(OC3CCCC3)cc2n1Cc1ccccc1` [Compound 16, 1-Benzyl-6-(cyclopentoxy)-N-(3,4-difluorobenzyl)-2-isopropyl-1H-indole-3-carboxamide], the Kb worked out at 1.2 nM, the “S1P3 (% inh)” value is given as 3 nM (100) 1.2 nM % and the IC50 came out at 3 nM.

Regarding `COCCOc1ccc2c(C(=O)NCc3ccc(F)c(F)c3)c(C(C)C)n(Cc3ccccc3)c2c1` [Compound 17, 1-Benzyl-N-(3,4-difluorobenzyl)-2-isopropyl-6-(2-methoxyethoxy)-1H-indole-3-carboxamide], under setting [1], the IC50 came to 6.5 nM. Further, under setting [2], the “S1P3 (% inh)” value is recorded as 99%.

With `CC(C)c1c(C(=O)NCc2ccc(F)c(F)c2)c2ccc(OCCN(C)C)cc2n1Cc1ccccc1` [Compound 18, 1-Benzyl-N-(3,4-difluorobenzyl)-6-(2-(dimethylamino)ethoxy)-2-isopropyl-1H-indole-3-carboxamide], the half-inhibitory concentration (IC50) under setting [1] is 242 nM. Also, the “S1P3 (% inh)” value under setting [2] worked out at 94%.

One may read the IC50 as the concentration that inhibits the measured activity by half.
